Data: article PMC4666608, “Metabolic Profiling of Chicken Embryos Exposed to Perfluorooctanoic Acid (PFOA) and Agonists to Peroxisome Proliferator-Activated Receptors” (PLoS ONE, 2015)
Marks after values point to notes of the source that are not given here.

Legend:
[1] = test system: chicken embryos; conditions: injection before start of incubation; cited from earlier work
[2] = test system: chicken embryos; assay: Metabolic profiling of blood plasma (GC-MS, LC-MS, OPLS-DA); type: in vivo, Gallus gallus domesticus; conditions: for Mean concentration relative to control, feature Win006_C03 / Mean concentration relative to control, feature Win011_C02 (Isoleucine) / Mean concentration relative to control, feature Win027_C13 / Mean concentration relative to control, feature Win031_C03 (Citric acid) / Mean concentration relative to control, feature Win034_C08 (Tyrosine) / Mean concentration relative to control, feature Win034_C09 (Tyrosine) / Mean concentration relative to control, feature Win039_C07 / Mean concentration relative to control, feature Win043_C02 (Cystathionine) / Mean concentration relative to control, feature Win061_C01 / Mean concentration relative to control, feature Win066_C03 / Mean concentration relative to control, feature Win088_C02: GC
Protocol: Controls were injected with 20 μL vehicle only (DMSO).
Plasma was collected and stored at -70°C.
Metabolites in allantoic fluid and blood plasma were analyzed using gas chromatography-mass spectrometry (GC-MS) and liquid chromatography-mass spectrometry (LC-MS) as described in S1 Methods. Prior to GC-MS and LC-MS analysis, allantoic fluid (100 μL) and blood plasma (50 μL) were extracted. To each sample, 900 μL (allantoic fluid) or 450 μL (blood plasma) of extraction buffer (90/10 v/v methanol:water) including all internal standards were added. Standards for GC-MS were proline, succinic acid, glutamic acid, salicylic acid, alpha-ketoglutarate, putrescine, myristic acid, hexadecanoic acid, cholesterol, and sucrose. Standards for LC-MS were Val-Tyr-Val, Leu-enkephalin, sulfadimethoxine and reserpine. Samples were homogenized by shaking in a bead mill at a frequency of 30 Hz for 3 minutes and proteins were precipitated at +4°C on ice. The samples were centrifuged at +4°C, 14000 rpm, for 10 min. Then, 200 μL supernatant was transferred to a GC microvial and 200 μL was transferred to an LC microvial, and solvents were evaporated. Samples from the four replicate experiments were analyzed using in chronological order and within each replicate experiment the run order of the individual samples was randomized.
Multivariate statistical analyses of metabolite profiles were performed using the software package SIMCA-P version 13.0 (Umetrics, Umeå, Sweden). Data was centered and scaled to variance 1 (UV scaling) prior to modelling. To reduce unintended systematic variation caused by sample processing and instrument drift, GC-MS and LC-MS metabolite amounts (expressed as the area under the chromatographic peak) were normalized by Orthogonal Partial Least Squares analysis (O2PLS) prior to multivariate data analysis. O2PLS finds common (predictive) and unique (orthogonal) variation in two data matrices. If applied to find the common variation between the data matrix containing the measured metabolite concentrations and a matrix containing only the internal standards, the only common (predictive) variation expected is due to the unintended systematic variation. By deleting the contribution of the predictive latent variables, that variation can be removed from the data. Models obtained after this normalization contain in general less latent variables, and this simplification helps when deciding on the number of latent variables to be used. Following normalization, GC-MS and LC-MS data were analyzed together. Initially, a global Principal Component Analysis (PCA) was performed to get an overview of groups and trends and to identify outliers. Projections to latent structures by means of Orthogonal Partial Least Squares Discriminant Analysis (OPLS-DA) was used to model the relationship between the X-matrix (metabolite concentrations) and the Y matrix (class, i.e. exposure group or sex), and to find x-variables that were related to class belonging. OPLS-DA is a supervised prediction and regression method that rotates the projection plane to find the maximum covariance between the data and the class assignment. All groups were first analyzed together in a 5-class OPLS-DA and then each exposure group was analyzed against the control group in a 2-class OPLS-DA. Sex differences were analyzed both using the whole data set and in each group separately using 2-class OPLS-DA, with females and males as the two classes. Only variables with 80% or more nonzero values were included in the statistical models. […] The validity of each model was also checked using CV-ANOVA (ANOVA of the cross-validated residuals). A significance level of p < 0.05 was used. For each model, R ^2 X, R ^2 Y and Q ^2 values were calculated, where R ^2 X is a measure of the fraction of x variation modeled in the extracted latent variables, R ^2 Y is a measure of the fraction of y variation modeled and Q ^2 is an estimate of the predictive ability of the model and is calculated by cross-validation. […]

O=C(O)C(F)(F)C(F)(F)C(F)(F)C(F)(F)C(F)(F)C(F)(F)C(F)(F)F [PFOA, perfluorooctanoic acid]
Dose at which increased mortality was reported [1]: 5 mg/kg egg | Doses with lack of effect on hatching success or mortality [1]: up to 10 mg/kg egg | Lowest observed effect level, increased embryo mortality [1]: 2 mg/kg egg | Mean concentration relative to control, feature Win006_C03 ([2]; PFOA 50): 1.1* | Mean concentration relative to control, feature Win011_C02 (Isoleucine) ([2]; PFOA 50): 1.1 | Mean concentration relative to control, feature Win027_C13 ([2]; PFOA 50): 0.9 | Mean concentration relative to control, feature Win031_C03 (Citric acid) ([2]; PFOA 50): 1 | Mean concentration relative to control, feature Win034_C08 (Tyrosine) ([2]; PFOA 50): 1.1 | Mean concentration relative to control, feature Win034_C09 (Tyrosine) ([2]; PFOA 50): 1.1 | Mean concentration relative to control, feature Win039_C07 ([2]; PFOA 50): 1.3 | Mean concentration relative to control, feature Win043_C02 (Cystathionine) ([2]; PFOA 50): 1.1 | Mean concentration relative to control, feature Win061_C01 ([2]; PFOA 50): 0.9 | Mean concentration relative to control, feature Win066_C03 ([2]; PFOA 50): 1 | Mean concentration relative to control, feature Win088_C02 ([2]; PFOA 50): 1 | Mean concentration relative to control, feature Win006_C03 ([2]; PFOA 250): 1.1* | Mean concentration relative to control, feature Win011_C02 (Isoleucine) ([2]; PFOA 250): 1.1* | Mean concentration relative to control, feature Win027_C13 ([2]; PFOA 250): 0.8* | Mean concentration relative to control, feature Win031_C03 (Citric acid) ([2]; PFOA 250): 1 | Mean concentration relative to control, feature Win034_C08 (Tyrosine) ([2]; PFOA 250): 1 | Mean concentration relative to control, feature Win034_C09 (Tyrosine) ([2]; PFOA 250): 1.0 | Mean concentration relative to control, feature Win039_C07 ([2]; PFOA 250): 1.3 | Mean concentration relative to control, feature Win043_C02 (Cystathionine) ([2]; PFOA 250): 1.1 | Mean concentration relative to control, feature Win061_C01 ([2]; PFOA 250): 0.9 | Mean concentration relative to control, feature Win066_C03 ([2]; PFOA 250): 1 | Mean concentration relative to control, feature Win088_C02 ([2]; PFOA 250): 1 | Mean concentration relative to control, feature 118.0284@2.480333 (C4H6O4) ([2]; LC, PFOA 50): 1 | Mean concentration relative to control, feature 122.0486@0.675613 ([2]; LC, PFOA 50): 1.1 | Mean concentration relative to control, feature 126.0428@1.2278157 (Thymine) ([2]; LC, PFOA 50): 1.1 | Mean concentration relative to control, feature 146.0362@0.7772238 ([2]; LC, PFOA 50): 1.1 | Mean concentration relative to control, feature 159.0686@1.1608156 ([2]; LC, PFOA 50): 1 | Mean concentration relative to control, feature 164.0449@0.7694838 ([2]; LC, PFOA 50): 1.1 | Mean concentration relative to control, feature 202.1024@5.0303197 (C8H14N2O4) ([2]; LC, PFOA 50): 1.1 | Mean concentration relative to control, feature 203.1162@0.5130696 ([2]; LC, PFOA 50): 1.1 | Mean concentration relative to control, feature 213.2458@7.4887733 ([2]; LC, PFOA 50): 1 | Mean concentration relative to control, feature 215.047@1.6260729 (C5H14NO6P) ([2]; LC, PFOA 50): 1.0 | Mean concentration relative to control, feature 226.0721@1.9460537 ([2]; LC, PFOA 50): 1 | Mean concentration relative to control, feature 231.0174@1.6241412 ([2]; LC, PFOA 50): 1 | Mean concentration relative to control, feature 233.1265@2.535991 ([2]; LC, PFOA 50): 1.1 | Mean concentration relative to control, feature 250.1317@2.1334834 ([2]; LC, PFOA 50): 1.1 | Mean concentration relative to control, feature 260.0508@0.69984084 ([2]; LC, PFOA 50): 0.6** | Mean concentration relative to control, feature 276.0173@1.6283482 ([2]; LC, PFOA 50): 1 | Mean concentration relative to control, feature 278.0939@1.3354088 ([2]; LC, PFOA 50): 1 | Mean concentration relative to control, feature 293.0903@1.5739433 ([2]; LC, PFOA 50): 1 | Mean concentration relative to control, feature 307.2147@7.5065937 (C18H29NO3) ([2]; LC, PFOA 50): 1.3** | Mean concentration relative to control, feature 310.178@7.5343466 ([2]; LC, PFOA 50): 1 | Mean concentration relative to control, feature 339.3861@9.528681 ([2]; LC, PFOA 50): 1.4* | Mean concentration relative to control, feature 342.2883@7.526812 ([2]; LC, PFOA 50): 0.9** | Mean concentration relative to control, feature 348.0675@1.5761927 ([2]; LC, PFOA 50): 1 | Mean concentration relative to control, feature 355.9454@0.68034226 ([2]; LC, PFOA 50): 1 | Mean concentration relative to control, feature 362.1467@0.8461036 ([2]; LC, PFOA 50): 1.1 | Mean concentration relative to control, feature 366.1431@1.4228548 ([2]; LC, PFOA 50): 1 | Mean concentration relative to control, feature 373.296@9.044806 ([2]; LC, PFOA 50): 1 | Mean concentration relative to control, feature 375.3108@8.995564 ([2]; LC, PFOA 50): 1 | Mean concentration relative to control, feature 389.2686@9.046645 ([2]; LC, PFOA 50): 1 | Mean concentration relative to control, feature 407.0999@1.585909 ([2]; LC, PFOA 50): 1 | Mean concentration relative to control, feature 412.135@2.4779084 (C17H24N4O6S) ([2]; LC, PFOA 50): 1 | Mean concentration relative to control, feature 444.3607@10.33052 ([2]; LC, PFOA 50): 0.9 | Mean concentration relative to control, feature 471.9819@0.685074 ([2]; LC, PFOA 50): 1 | Mean concentration relative to control, feature 489.1508@8.562614 ([2]; LC, PFOA 50): 0.8* | Mean concentration relative to control, feature 509.1184@2.4798179 ([2]; LC, PFOA 50): 1 | Mean concentration relative to control, feature 525.2855@8.361063 ([2]; LC, PFOA 50): 1.1 | Mean concentration relative to control, feature 545.2492@8.463657 ([2]; LC, PFOA 50): 1.1 | Mean concentration relative to control, feature 558.4095@9.459733 ([2]; LC, PFOA 50): 1.2 | Mean concentration relative to control, feature 565.1902@0.7699907 ([2]; LC, PFOA 50): 1.1 | Mean concentration relative to control, feature 577.2747@9.25652 ([2]; LC, PFOA 50): 1 | Mean concentration relative to control, feature 581.1643@0.77029324 ([2]; LC, PFOA 50): 1.1
